The text below walks through data of patent US8101198B2, “Osteogenic enhancer composition” (The Regents of the University of California, priority 2007, dated 2012).

For experiment [1], the system named is rat osteoblastic cells. The experiment in a line: Alkaline phosphatase (ALP) stain of osteoblastic culture (Example 1). The format is cell-based. The conditions noted are these: NAC added into osteoblastic culture, day 7; dose-dependent up to 5 mM; p<0.001 vs without NAC. The method, then: Bone marrow cells isolated from the femur of 8-week-old male Sprague-Dawley rats were placed into alpha-modified Eagle's medium supplemented with 15% fetal bovine serum, 50 µg/ml ascorbic acid, 10^−8M dexamethasone, 10 mM Na-β-glycerophosphate and Antibiotic-antimycotic solution containing 10,000 units/ml Penicillin G sodium, 10,000 mg/ml Streptomycin sulfate and 25 mg/ml Amphotericin B. Cells were incubated in a humidified atmosphere of 95% air, 5% CO2 at 37° C. At 80% confluency, the cells were detached using 0.25% Trypsin-1 mM EDTA-4Na and seeded either the polystyrene dish with or without NAC addition, bone substitute material (demineralized bone matrix, Orthoblast, IsoTis OrthoBiologics, Inc. Irvine, Calif.), collagen gel (PureCol, Inamed, Fremont, Calif.) or bone cement (Endurance MV, DePuy Orthopaedics, Warsaw, Ind.) with or without NAC incorporation at a density of 4×10^4 cells/cm^2. The culture medium was renewed every three days. The NAC incorporated bone graft substitute and collagen membrane materials were prepared by soaking each of the materials in NAC for 24 hours. The NAC-incorporated collagen gel was prepared by mixing the collagen gel and NAC. […] The stained images were analyzed for ALP positive area defined as [(stained area/total dish area)×100)] […] Three independent cultures were evaluated in each the experimental groups.

In experiment [2] the test system is rat osteoblastic cells. Description: Mineralization assays, Von Kossa and Alizarin Red stain (Example 1). The format is cell-based. The conditions noted are these: NAC added into culture medium, day 14; dose-dependent; p<0.001. The method, then:
Bone marrow cells isolated from the femur of 8-week-old male Sprague-Dawley rats were placed into alpha-modified Eagle's medium supplemented with 15% fetal bovine serum, 50 µg/ml ascorbic acid, 10^−8M dexamethasone, 10 mM Na-β-glycerophosphate and Antibiotic-antimycotic solution containing 10,000 units/ml Penicillin G sodium, 10,000 mg/ml Streptomycin sulfate and 25 mg/ml Amphotericin B. Cells were incubated in a humidified atmosphere of 95% air, 5% CO2 at 37° C. At 80% confluency, the cells were detached using 0.25% Trypsin-1 mM EDTA-4Na and seeded either the polystyrene dish with or without NAC addition, bone substitute material (demineralized bone matrix, Orthoblast, IsoTis OrthoBiologics, Inc. Irvine, Calif.), collagen gel (PureCol, Inamed, Fremont, Calif.) or bone cement (Endurance MV, DePuy Orthopaedics, Warsaw, Ind.) with or without NAC incorporation at a density of 4×10^4 cells/cm^2. The culture medium was renewed every three days. The NAC incorporated bone graft substitute and collagen membrane materials were prepared by soaking each of the materials in NAC for 24 hours. The NAC-incorporated collagen gel was prepared by mixing the collagen gel and NAC. […] (%) was measured using a digitized image analysis system (Image Pro-plus, Media Cybernetics, MD). Three independent cultures were evaluated in each of the experimental groups.

Another experiment has as its system osteoblastic culture. The experiment in a line: Gene expression analysis of bone-related genes by RT-PCR (Example 1). The conditions noted are these: relative to GAPDH. The format is cell-based, rat. The method, then: Bone marrow cells isolated from the femur of 8-week-old male Sprague-Dawley rats were placed into alpha-modified Eagle's medium supplemented with 15% fetal bovine serum, 50 µg/ml ascorbic acid, 10^−8M dexamethasone, 10 mM Na-β-glycerophosphate and Antibiotic-antimycotic solution containing 10,000 units/ml Penicillin G sodium, 10,000 mg/ml Streptomycin sulfate and 25 mg/ml Amphotericin B. Cells were incubated in a humidified atmosphere of 95% air, 5% CO2 at 37° C. At 80% confluency, the cells were detached using 0.25% Trypsin-1 mM EDTA-4Na and seeded either the polystyrene dish with or without NAC addition, bone substitute material (demineralized bone matrix, Orthoblast, IsoTis OrthoBiologics, Inc. Irvine, Calif.), collagen gel (PureCol, Inamed, Fremont, Calif.) or bone cement (Endurance MV, DePuy Orthopaedics, Warsaw, Ind.) with or without NAC incorporation at a density of 4×10^4 cells/cm^2. The culture medium was renewed every three days. The NAC incorporated bone graft substitute and collagen membrane materials were prepared by soaking each of the materials in NAC for 24 hours. The NAC-incorporated collagen gel was prepared by mixing the collagen gel and NAC. The expression of bone-related genes was analyzed using the reverse transcription-polymerase chain reaction (RT-PCR). Total RNA in the cultures was extracted using TRIzol (Invitrogen, Carlsbad, Calif.) and purification column (RNeasy, Qiagen, Valencia, Calif.). Following DNAse I treatment, reverse transcription of 0.5 μg of total RNA was performed using MMLV reverse transcriptase (Clontech, Carlsbad, Calif.) in the presence of oligo(dT) primer (Clontech, Carlsbad, Calif.). The PCR reaction was performed using Taq DNA polymerase (EX Taq, Takara Bio, Madison, Wis.) to detect alpha-I type I collagen (collagen I), osteopontin, and osteocalcin mRNA. The primer sequences and PCR conditions are described previously. Resulting products were visualized on 1.5% agarose gel with ethidium bromide staining. The intensity of bands was quantified under UV light, and the values were normalized with reference to GAPDH mRNA.

As for `CC(=O)N[C@@H](CS)C(=O)O` [NAC, N-acetyl cysteine], the “alkaline phosphatase activity (ALP positive area)” value in the experiment on rat osteoblastic cells [1] was “increased”. In addition, the “Von Kossa positive area (mineralizing capability)” value in the experiment with rat osteoblastic cells [2] was “significantly increased”. Moreover, in the experiment with osteoblastic culture (NAC addition to the culture), the “gene expression level of Bmp2” value is reported as “significantly elevated” and the “gene expression level of Runx2/cbfa1” value is listed as “significantly elevated”. In addition, the osteocalcin expression result in the experiment on osteoblastic culture (culture with NAC, early stage of day 3) is given as “upregulated”. In addition, in the experiment on osteoblastic culture (culture with NAC, up to day 14), the “expression of collagen I” value was “upregulated” and the expression of osteopontin entry is on record as “upregulated”.
